≈ marks a conversion by molar mass, not a printed value.

Assay in all cases: ≥ marks a high value that may be exact or a test limit, other limits are often not marked, values filed in µg/mL are converted to µM
The subject of experiment [1] is Staphylococcus aureus ATCC BAA-1556.
The test system of experiment [2] is Escherichia coli DH5alpha.
In experiment [3] the test system is Pseudomonas aeruginosa KCTC 1637.
For experiment [4], the system named is Bacillus subtilis KCTC 3068.
In experiment [5] the test system is Salmonella typhimurium KCTC 1926.
The test system of experiment [6] is Staphylococcus epidermidis KCTC 1917.
Experiment [7] concerns Staphylococcus aureus KCTC 1621.
In experiment [8] the test system is Escherichia coli KCTC 1682.

On to `CC(C)C[C@H](NC(=O)[C@H](CC(C)C)NC(=O)[C@H](CCCCN)NC(=O)[C@H](CC(C)C)NC(=O)[C@H](CC(C)C)NC(=O)[C@H](CC(C)C)NC(=O)[C@H](CC(C)C)NC(=O)[C@H](CC(C)C)NC(=O)[C@@H](N)CCCCN)C(N)=O` [KLLLLLKLL], for which the MIC (as a rule, the lowest concentration that inhibits growth of the organism) in experiment [1] is at least 100 µM.

Consider `CC(C)C[C@H](NC(=O)[C@H](CC(C)C)NC(=O)[C@H](CCCCN)NC(=O)[C@H](CC(C)C)NC(=O)[C@H](CC(C)C)NC(=O)[C@H](Cc1c[nH]c2ccccc12)NC(=O)[C@H](CCCCN)NC(=O)[C@H](CC(C)C)NC(=O)[C@H](CC(C)C)NC(=O)[C@@H](N)CCCCN)C(N)=O` [KLLKWLLKLL], for which the MIC in experiment [1] worked out at 3.13 µM (≈ 3.96 µg/mL).

Consider `CC(C)C[C@H](NC(=O)[C@H](CC(C)C)NC(=O)[C@H](CC(C)C)NC(=O)[C@H](CCCCN)NC(=O)[C@H](CC(C)C)NC(=O)[C@H](CC(C)C)NC(=O)[C@H](CCCCN)NC(=O)[C@H](CC(C)C)NC(=O)[C@@H](N)CC(C)C)C(N)=O` [LLKLLKLLL], for which the minimum inhibitory concentration (MIC) in experiment [1] turned out to be 3.13 µM (≈ 3.34 µg/mL).

`CC(C)C[C@H](NC(=O)[C@H](CC(C)C)NC(=O)[C@H](CCCCN)NC(=O)[C@H](CC(C)C)NC(=O)[C@H](CC(C)C)NC(=O)[C@H](CC(C)C)NC(=O)[C@H](CCCCN)NC(=O)[C@H](CC(C)C)NC(=O)[C@@H](N)CC(C)C)C(=O)O` [LLKLLLKLL]: the minimal inhibitory concentration (MIC) in experiment [1] was at least 100 µM.

In turn, `CC[C@H](C)[C@H](NC(=O)[C@H](Cc1c[nH]c2ccccc12)NC(=O)[C@H](CCCN=C(N)N)NC(=O)[C@H](CCCN=C(N)N)NC(=O)[C@H](C)NC(=O)[C@@H](N)CCCCN)C(=O)N[C@@H](CCCN=C(N)N)C(=O)N[C@@H](Cc1c[nH]c2ccccc12)C(=O)N[C@@H](CC(C)C)C(N)=O` [KARRWIRWL] registered an MIC in experiment [1] of 25 µM (≈ 32.1 µg/mL).

In experiment [2], `C[C@@H](O)[C@H](NC(=O)[C@H](CCCN=C(N)N)NC(=O)[C@H](CCCN=C(N)N)NC(=O)[C@H](CC(N)=O)NC(=O)[C@H](Cc1c[nH]c2ccccc12)NC(=O)[C@H](CCCN=C(N)N)NC(=O)[C@H](Cc1c[nH]c2ccccc12)NC(=O)[C@@H](N)CCCN=C(N)N)C(=O)NCC(=O)N[C@@H](CCCN=C(N)N)C(=O)N[C@@H](Cc1c[nH]c2ccccc12)C(=O)N[C@@H](CCCN=C(N)N)C(=O)N[C@@H](Cc1c[nH]c2ccccc12)C(=O)N[C@@H](Cc1ccc(O)cc1)C(=O)O` [RWRWNRRTGRWRWY] registered a minimum inhibitory concentration (MIC) of 12.5 µM (≈ 26.7 µg/mL).

On to `CC(C)C[C@H](NC(=O)[C@H](CCCCN)NC(=O)[C@H](CC(C)C)NC(=O)[C@H](CC(C)C)NC(=O)[C@H](CC(C)C)NC(=O)[C@H](CCCCN)NC(=O)[C@H](CC(C)C)NC(=O)[C@@H](N)CC(C)C)C(N)=O` [LLKLLLKL], for which the MIC in experiment [1] was at least 100 µM.

In experiment [1], `CC[C@H](C)[C@H](NC(=O)[C@H](Cc1c[nH]c2ccccc12)NC(=O)[C@H](CCCN=C(N)N)NC(=O)[C@H](CC(C)C)NC(=O)[C@H](Cc1c[nH]c2ccccc12)NC(=O)[C@@H](N)CCCCN)C(=O)N[C@@H](CCCN=C(N)N)C(=O)N[C@@H](Cc1c[nH]c2ccccc12)C(=O)N[C@@H](CC(C)C)C(N)=O` [KWLRWIRWL] yielded a minimum inhibitory concentration (MIC) of 6.25 µM (≈ 8.47 µg/mL).

Take `CC(C)C[C@H](NC(=O)[C@H](CCCCN)NC(=O)[C@H](CC(C)C)NC(=O)[C@H](CC(C)C)NC(=O)[C@H](CC(C)C)NC(=O)[C@H](CC(C)C)NC(=O)[C@H](CCCCN)NC(=O)[C@H](CC(C)C)NC(=O)[C@@H](N)CC(C)C)C(N)=O` [LLKLLLLKL]: the minimum inhibitory concentration (MIC) in experiment [1] is at least 100 µM.

For the compound `CC[C@H](C)[C@H](N)C(=O)NCC(=O)N[C@@H](CCCCN)C(=O)N[C@@H](CCCCN)C(=O)N[C@@H](Cc1ccccc1)C(=O)N[C@@H](CCCCN)C(=O)N[C@@H](CCCN=C(N)N)C(=O)N[C@H](C(=O)N[C@H](C(=O)N[C@@H](CCCCN)C(=O)N[C@@H](CCCN=C(N)N)C(=O)N[C@H](C(=O)N[C@@H](CCCCN)C(=O)N[C@@H](CCCCN)C(=O)N[C@@H](Cc1c[nH]c2ccccc12)C(=O)N[C@@H](CC(C)C)C(=O)N[C@@H](CCCN=C(N)N)C(=O)N[C@@H](CCCCN)C(=O)N[C@@H](CC(C)C)C(=O)O)[C@@H](C)CC)C(C)C)[C@@H](C)CC` [IGKKFKRIVKRIKKWLRKL], the MIC in experiment [3] was 4 µM (≈ 9.76 µg/mL); in experiment [4], 2 µM (≈ 4.88 µg/mL); in experiment [5], 2 µM (≈ 4.88 µg/mL); in experiment [6], 4 µM (≈ 9.76 µg/mL); in experiment [7], 2 µM (≈ 4.88 µg/mL); in experiment [8] it was 4 µM (≈ 9.76 µg/mL).

`C[C@@H](O)[C@H](NC(=O)[C@H](CCCCN)NC(=O)[C@H](Cc1c[nH]c2ccccc12)NC(=O)[C@H](Cc1c[nH]c2ccccc12)NC(=O)[C@@H](NC(=O)[C@H](CCCCN)NC(=O)[C@@H](N)CCCCN)[C@@H](C)O)C(=O)N[C@@H](Cc1c[nH]c2ccccc12)C(=O)N[C@@H](Cc1c[nH]c2ccccc12)C(=O)N[C@H](C(=O)N[C@@H](CCCCN)C(=O)N[C@@H](Cc1c[nH]c2ccccc12)C(=O)N[C@@H](CO)C(=O)N[C@@H](CCC(N)=O)C(=O)N1CCC[C@H]1C(=O)O)[C@@H](C)O` [KKTWWKTWWTKWSQP]: the minimum inhibitory concentration (MIC) in experiment [3] turned out to be 8 µM (≈ 16.6 µg/mL); in experiment [4] it was 2 µM (≈ 4.15 µg/mL); in experiment [5] it was 4 µM (≈ 8.31 µg/mL); in experiment [6], 4 µM (≈ 8.31 µg/mL); in experiment [7] it was 4 µM (≈ 8.31 µg/mL); in experiment [8], 4 µM (≈ 8.31 µg/mL).

In experiment [1], `CC(C)C[C@H](NC(=O)[C@H](Cc1c[nH]c2ccccc12)NC(=O)[C@H](Cc1c[nH]c2ccccc12)NC(=O)[C@H](CCCN=C(N)N)NC(=O)[C@H](Cc1c[nH]c2ccccc12)NC(=O)[C@H](Cc1c[nH]c2ccccc12)NC(=O)[C@H](CC(C)C)NC(=O)[C@H](Cc1c[nH]c2ccccc12)NC(=O)[C@@H](N)Cc1c[nH]c2ccccc12)C(N)=O` [WWLWWRWWL] had an MIC of 6.25 µM (≈ 9.48 µg/mL).

`CC(C)C[C@H](NC(=O)[C@H](CCCCN)NC(=O)[C@H](CC(C)C)NC(=O)[C@H](CC(C)C)NC(=O)[C@H](CC(C)C)NC(=O)[C@H](CCCCN)NC(=O)[C@H](CC(C)C)NC(=O)[C@H](CC(C)C)NC(=O)[C@@H](N)CC(C)C)C(N)=O` [LLLKLLLKL]: the MIC in experiment [1] is at least 100 µM.

`CC[C@H](C)[C@H](NC(=O)[C@H](CCCN=C(N)N)NC(=O)[C@H](CCC(N)=O)NC(=O)[C@@H](NC(=O)[C@@H](NC(=O)[C@H](CCCN=C(N)N)NC(=O)[C@@H](N)CCCCN)[C@@H](C)CC)C(C)C)C(=O)N[C@@H](CCCCN)C(=O)N[C@@H](CC(=O)O)C(=O)N[C@@H](Cc1c[nH]c2ccccc12)C(=O)N[C@@H](CC(C)C)C(=O)N[C@@H](CCCN=C(N)N)C(N)=O` [KRIVQRIKDWLR]: the MIC in experiment [3] came to 8 µM (≈ 12.9 µg/mL); in experiment [4], 4 µM (≈ 6.44 µg/mL); in experiment [5], 4 µM (≈ 6.44 µg/mL); in experiment [6], 1 µM (≈ 1.61 µg/mL); in experiment [7], 2 µM (≈ 3.22 µg/mL); in experiment [8] it was 2 µM (≈ 3.22 µg/mL).

Turning to `CC(C)[C@H](N)C(=O)N[C@H](C(=O)N[C@@H](CCCCN)C(=O)N[C@H](C(=O)N[C@H](C(=O)N[C@H](C(=O)N[C@@H](CCCCN)C(=O)N[C@H](C(=O)N[C@H](C(N)=O)C(C)C)C(C)C)C(C)C)C(C)C)C(C)C)C(C)C` [VVKVVVKVV], the MIC in experiment [1] is at least 100 µM.

Regarding `CC[C@H](C)[C@H](N)C(=O)N[C@@H](CC(C)C)C(=O)N[C@@H](CCCCN)C(=O)N[C@@H](Cc1c[nH]c2ccccc12)C(=O)N[C@@H](CCCCN)C(=O)N[C@@H](Cc1c[nH]c2ccccc12)C(=O)N[C@@H](CCCCN)C(=O)N[C@@H](Cc1c[nH]c2ccccc12)C(=O)N[C@@H](Cc1c[nH]c2ccccc12)C(=O)N[C@@H](CCCCN)C(=O)N[C@@H](Cc1c[nH]c2ccccc12)C(=O)N[C@@H](CCCN=C(N)N)C(=O)N[C@@H](CCCN=C(N)N)C(N)=O` [ILKWKWKWWKWRR], the minimal inhibitory concentration (MIC) in experiment [3] turned out to be 5 µM (≈ 10 µg/mL); in experiment [4], 2.5 µM (≈ 5 µg/mL); in experiment [5], 2.5 µM (≈ 5 µg/mL); in experiment [6] it was 5 µM (≈ 10 µg/mL); in experiment [7], 2.5 µM (≈ 5 µg/mL); in experiment [8], 5 µM (≈ 10 µg/mL).

For the origin of these results see DBAASP.
